Data: patent publication US20220218627A1 (priority 2019, published 2022)

Tests used:
[1] = in vivo; cited from earlier work
[2] = system: pediatric procedural pain; conditions: in vivo; cited from earlier work
[3] = system: acute traumatic pain; conditions: in vivo; cited from earlier work
[4] = system: Cluster headache patients; conditions: human, in vivo
[5] = system: migraine or Cluster headache patients; conditions: in vivo, iv; cited from earlier work
[6] = system: major depressive disorder; conditions: in vivo; cited from earlier work

CNC1(c2ccccc2Cl)CCCCC1=O (stereo not drawn) [ketamine, 2-(2-chlorophenyl)-2-(methylamino)cyclohexanone]
terminal plasma half-life [1]: 2 to 3 h
time to peak plasma concentrations [1]: 10 to 15 min
onset of analgesia [2]: rapid onset of analgesia
side effects [2]: only slight sedation
efficacy in pain treatment compared to morphine IV or IM [3]: equal efficient in pain treatment
hallucinations or out-of-body experience [3]: No patients complained of hallucinations or out of-body experience
side effects [3]: mainly dizziness
time to onset [3]: approx. 15 min
Case 1: number of sprays after which patient reported feeling better [4]: 2-3 sprays
Case 1: side effects (dysphoria, out-of-body) [4]: no side effects
Case 2: cluster headache episode frequency over about a year [4]: beginning to get less frequent
Case 3: long-term course of cluster headache episodes [4]: only had one short cluster headache episode in the last three to four years
Cases 1-3: change from initial baseline on 0 to 10 Visual Analogue Scale (VAS) [4]: above 65%
Cases 1-3: dysphoria or nausea [4]: Increased dysphoria or nausea was not noted
Cases 1-3: out-of-body experiences or hallucinations [4]: No out-off body experiences, or hallucinations were observed
Case 1: outcome of IV treatment on cluster headaches ([4]; iv): complete cessation of the cluster headaches in three days
Case 2: change in cluster headache frequency ([4]; iv): from 5 episodes per day to only one cluster headache in the next week
Case 3: shortening of the duration of the cluster episode ([4]; iv): greater than two-thirds
patients complaining of spaciness, fearfulness, jitteriness or lack of personal control [5]: approximately 43%
patients experiencing nausea at some point during treatment [5]: 3.2%
effect on depressive symptoms [6]: rapid improvement of the depressive symptoms
serious adverse effects [6]: No serious adverse effects occurred

CCCC(CCC)C(=O)O [Depacon]
Case 3: success in shutting the cluster episode down ([4]; iv): only partial success

CCN(CC)CC(=O)Nc1c(C)cccc1C [lidocaine]
Case 3: success in shutting the cluster episode down ([4]; iv): only partial success
